From US7494714B2, “Surfaces that resist the adsorption of biological species” (President & Fellows of Harvard College, priority 2000, dated 2009)
Where a SMILES comes first, the peptide text is derived from it. [ ]: non-standard residue; d: D form. Sar = CNCC(=O)O

Tests used:
fibrinogen = target: T1, fibrinogen (Bos taurus, UniProt P02672+P02676+P12799); assay: SPR adsorption of fibrinogen to SAMs / grafted polymer films; type: binding, bovine; details: for % Fiboff (percent decrease in adsorbed protein during 10 minute PBS wash) / dR/dton fibrinogen (maximum initial rate of adsorption) / % MLfib 3 min / % MLfib 30 min: mixed SAM —CONRR′/—CO2H; for % MLfib 3 min: 1 mg/mL fibrinogen flowed 3 min, relative to —CONH(CH2)10CH3/—CO2H SAM; for % MLfib 30 min: 1 mg/mL fibrinogen flowed 30 min; for % ML 30 min / dR/dt on / % ML 3 min: fibrinogen; for % ML 3 min: single-component SAMs (a, RSH) and mixed SAMs (b, RNH2)
T1 sequence (P02672 20-615): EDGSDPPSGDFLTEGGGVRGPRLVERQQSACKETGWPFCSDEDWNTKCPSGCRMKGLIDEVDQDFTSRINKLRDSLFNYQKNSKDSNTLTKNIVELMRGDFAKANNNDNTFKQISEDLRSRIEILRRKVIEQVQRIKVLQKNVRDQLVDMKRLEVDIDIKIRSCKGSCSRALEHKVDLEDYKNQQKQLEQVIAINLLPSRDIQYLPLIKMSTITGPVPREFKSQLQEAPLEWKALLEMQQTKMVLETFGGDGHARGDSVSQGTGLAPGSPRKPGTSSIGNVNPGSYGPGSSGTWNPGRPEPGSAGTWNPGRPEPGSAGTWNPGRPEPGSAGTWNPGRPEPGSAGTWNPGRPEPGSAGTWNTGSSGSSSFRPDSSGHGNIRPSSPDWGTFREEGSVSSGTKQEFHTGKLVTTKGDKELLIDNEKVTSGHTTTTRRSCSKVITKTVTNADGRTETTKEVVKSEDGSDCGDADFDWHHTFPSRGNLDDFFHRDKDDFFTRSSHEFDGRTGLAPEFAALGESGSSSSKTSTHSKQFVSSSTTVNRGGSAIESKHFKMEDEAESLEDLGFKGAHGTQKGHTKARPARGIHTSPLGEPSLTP
T1 sequence (P02676 1-468): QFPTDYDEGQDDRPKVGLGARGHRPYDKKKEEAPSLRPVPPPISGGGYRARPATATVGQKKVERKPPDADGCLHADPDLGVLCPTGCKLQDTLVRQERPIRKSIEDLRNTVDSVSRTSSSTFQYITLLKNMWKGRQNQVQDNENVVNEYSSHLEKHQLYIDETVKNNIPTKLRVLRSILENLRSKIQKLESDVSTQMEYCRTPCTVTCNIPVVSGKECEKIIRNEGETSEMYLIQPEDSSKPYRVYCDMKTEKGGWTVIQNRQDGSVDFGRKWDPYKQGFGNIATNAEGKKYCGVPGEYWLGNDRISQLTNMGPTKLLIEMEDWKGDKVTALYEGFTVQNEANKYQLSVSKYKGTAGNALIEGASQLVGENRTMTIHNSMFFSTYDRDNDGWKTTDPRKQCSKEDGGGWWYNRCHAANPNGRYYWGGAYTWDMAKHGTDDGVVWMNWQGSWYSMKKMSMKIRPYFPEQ
T1 sequence (P12799 25-444): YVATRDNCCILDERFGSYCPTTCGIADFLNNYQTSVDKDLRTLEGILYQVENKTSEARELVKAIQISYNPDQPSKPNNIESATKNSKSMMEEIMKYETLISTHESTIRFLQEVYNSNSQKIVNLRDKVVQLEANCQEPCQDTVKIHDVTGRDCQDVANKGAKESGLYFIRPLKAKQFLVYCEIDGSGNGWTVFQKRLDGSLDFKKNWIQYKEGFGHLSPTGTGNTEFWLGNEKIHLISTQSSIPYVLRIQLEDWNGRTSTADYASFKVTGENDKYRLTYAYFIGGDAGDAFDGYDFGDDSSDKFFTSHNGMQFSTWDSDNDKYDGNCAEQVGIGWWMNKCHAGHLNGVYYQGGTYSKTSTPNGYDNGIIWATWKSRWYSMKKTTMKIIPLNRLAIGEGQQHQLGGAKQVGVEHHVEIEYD

lysozyme = lysozyme (Gallus gallus, UniProt P00698); assay: SPR adsorption of lysozyme to SAMs / grafted polymer films; type: binding; details: for % Lysoff (percent decrease in adsorbed protein during 10 minute PBS wash) / dR/dton lysozyme (maximum initial rate of adsorption) / % MLlys 3 min / % MLlys 30 min: mixed SAM —CONRR′/—CO2H; for % MLlys 3 min: 1 mg/mL lysozyme flowed 3 min; for % MLlys 30 min: 1 mg/mL lysozyme flowed 30 min; for % ML 3 min / dR/dt on: lysozyme
[1] = single-component SAMs (a) and mixed SAMs (b)
[2] = footnote b (30 minutes), single-component SAMs (a) and mixed SAMs (b)

lysozyme, sequence (P00698 19-147): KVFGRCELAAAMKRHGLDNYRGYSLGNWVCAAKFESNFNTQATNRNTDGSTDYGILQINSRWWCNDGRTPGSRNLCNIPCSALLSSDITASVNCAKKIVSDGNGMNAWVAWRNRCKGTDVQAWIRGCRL

% Fiboff (percent decrease in adsorbed protein during 10 minute PBS wash) (fibrinogen)	dR/dton fibrinogen (maximum initial rate of adsorption) (fibrinogen)	% MLfib 3 min (fibrinogen)	% MLfib 30 min (fibrinogen)	% Lysoff (percent decrease in adsorbed protein during 10 minute PBS wash) (lysozyme)	dR/dton lysozyme (maximum initial rate of adsorption) (lysozyme)	% MLlys 3 min (lysozyme)	% MLlys 30 min (lysozyme)	% ML 30 min (fibrinogen; [1])	dR/dt on (fibrinogen; [1])	% ML 3 min (fibrinogen)	% ML 3 min (lysozyme; [2])	% ML 3 min (lysozyme; [1])	dR/dt on (lysozyme; [1])	% Fib off (fibrinogen; [1])	% Lys off (lysozyme; [1])	SMILES
21 ± 0.7%	55 ± 40 RU/sec	8 ± 1%	22 ± 0.4%	630 ± 4%	620 ± 130 RU/sec	2.1 ± 1.5%	8.8 ± 0.5%	–	–	–	–	–	–	–	–	CN(C)C(=O)CNC(=O)CNC(=O)CN [H2N(Gly)3N(CH3)2] (H-Gly-Gly-Gly-NMe2)
–	60 ± 10 RU/sec	0.7 ± 0.1%	2.0 ± 0.1%	–	70 ± 30 RU/sec	0.6 ± 0.1%	1.1 ± 0.3%	2.0%	60 RU/sec	0.7%	1.1%	0.6%	70 RU/sec	–	–	CNCC(=O)N(C)CC(=O)N(C)CC(=O)N(C)C [H(CH3)N(Sar)3N(CH3)2] (H-[Sar]-[Sar]-[Sar]-NMe2)
–	50 ± 10 RU/sec	0.6 ± 0.3%	1.3 ± 0.1%	14 ± 4%	50 ± 20 RU/sec	0.8 ± 0.7%	1.0 ± 0.2%	–	–	–	–	–	–	–	–	CNCC(=O)N(C)CC(=O)N(C)CC(=O)N(C)CC(=O)N(C)CC(=O)N(C)C [H(CH3)N(Sar)5N(CH3)2]

Continued, molecule first:

SMILES	% Fiboff (percent decrease in adsorbed protein during 10 minute PBS wash) (fibrinogen)	dR/dton fibrinogen (maximum initial rate of adsorption) (fibrinogen)	% MLfib 3 min (fibrinogen)	% MLfib 30 min (fibrinogen)	% Lysoff (percent decrease in adsorbed protein during 10 minute PBS wash) (lysozyme)	dR/dton lysozyme (maximum initial rate of adsorption) (lysozyme)	% MLlys 3 min (lysozyme)	% MLlys 30 min (lysozyme)	% ML 30 min (fibrinogen; [1])	dR/dt on (fibrinogen; [1])	% ML 3 min (fibrinogen)	% ML 3 min (lysozyme; [2])	% ML 3 min (lysozyme; [1])	dR/dt on (lysozyme; [1])	% Fib off (fibrinogen; [1])	% Lys off (lysozyme; [1])
NC[C@H](O)[C@H](O)[C@H](O)[C@@H](O)CO	4.8 ± 2%	820 ± 500 RU/sec	47 ± 12%	68 ± 7%	290 ± 3%	970 ± 400 RU/sec	13 ± 7%	20 ± 0.3%	–	–	–	–	–	–	–	–
Nc1ccc(O[C@@H]2O[C@H](CO)[C@@H](O[C@@H]3O[C@H](CO)[C@H](O)[C@H](O)[C@H]3O)[C@H](O)[C@H]2O)cc1	7.4 ± 0.4%	130 ± 80 RU/sec	17 ± 1.4%	32 ± 0.5%	190 ± 16%	290 ± 120 RU/sec	3.7 ± 0.1%	9.3 ± 0.4%	–	–	–	–	–	–	–	–
N#CCCNCCC#N [HN(CH2CH2CN)2]	20 ± 0.7%	590 ± 240 RU/sec	43 ± 1.0%	58 ± 1.6%	290 ± 8%	2700 ± 160 RU/sec	17 ± 1.0%	40 ± 2.0%	–	–	–	–	–	–	–	–
C1COCCOCCOCCOCCOCCN1	9.6 ± 0.9%	45 ± 20 RU/sec	3.8 ± 0.7%	11 ± 0.3%	72 ± 0.7%	100 ± 50 RU/sec	2.1 ± 0.4%	6.0 ± 0.5%	–	–	–	–	–	–	–	–
COC[C@H](OC)[C@H](OC)[C@H](OC)[C@@H](CN(C)C(=O)CCCCCCCCCCS)OC [Entry 4a]	–	–	–	–	–	–	–	–	0.7 ±0.1%	30 ±14 RU/sec	0.2 ±0.1%	0.5 ±0.2%	0.5 ±0.0%	29 ±20 RU/sec	66 ±5%	7 ±0%
